Consider eight compounds from PubChem BioAssay (NCI).

Values joined by “and” are separate entries in the source; they are usually repeats but may differ in a detail not shown here. Equal entries are not always repeated.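 Exposure lasted 48 hours, with cells grown in 96-well plates and compounds tested at five concentrations. GI50 = concentration required for 50% inhibition of growth. At the TGI there is no net growth.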 A value given as a limit tells only on which side of the number the result lay.

Among the test systems are RXF 393 renal; SN12C renal; LOX IMVI melanoma; HS 578T breast; A498 renal; SNB-19 CNS; HOP-62 NSCLC; M14 melanoma; EKVX NSCLC; TK-10 renal.
Assay in all cases: NCI-60 cell line screen, 48 h

As to `COc1cc(N2CCC(N(C)C)CC2)ccc1Nc1ncc(Cl)c(Nc2ccccc2P(C)(C)=O)n1`, the GI50 was 0.442 µM and 0.202 µM in the experiment with RXF 393 renal; 0.971 µM and 0.398 µM with SN12C renal; 0.394 µM and 0.175 µM in the experiment on LOX IMVI melanoma; 1.83 µM and 0.496 µM in the experiment with HS 578T breast; 0.128 µM and 0.086 µM in the experiment on A498 renal; 2.25 µM and 1.07 µM with SNB-19 CNS. Further, the GI50 in the experiment with HOP-62 NSCLC is 0.384 µM and 0.232 µM; with M14 melanoma, 2.23 µM and 0.503 µM; in the experiment on EKVX NSCLC, 0.344 µM; with TK-10 renal it was 0.491 µM and 0.196 µM. Further, the TGI with RXF 393 renal was 1.88 µM and 0.874 µM; in the experiment on SN12C renal, greater than 72.8 µM; in the experiment with LOX IMVI melanoma it was 1.82 µM and 0.68 µM; in the experiment on HS 578T breast, 8.27 µM and 2.21 µM; in the experiment on A498 renal, 0.476 µM and 0.53 µM; in the experiment on SNB-19 CNS, 98.7 µM and > 10 µM. Moreover, the TGI was 4.72 µM and > 10 µM in the experiment with HOP-62 NSCLC; 15.3 µM and > 4.88 µM with M14 melanoma; greater than 7.38 µM in the experiment with EKVX NSCLC; 3.02 µM and 2.62 µM in the experiment with TK-10 renal.

As for `O=C(CNC(=O)c1cccc2ccccc12)Nc1ccccc1Oc1cccc(O)c1`, the GI50 in the experiment with RXF 393 renal was 4.12 µM; with SN12C renal, greater than 25 µM; in the experiment on LOX IMVI melanoma, 15 µM; in the experiment with HS 578T breast, 5.79 µM; with A498 renal, 5.11 µM; in the experiment with SNB-19 CNS, 8.73 µM. The GI50 with HOP-62 NSCLC was 8.22 µM; in the experiment with M14 melanoma, 1.56 µM; in the experiment on EKVX NSCLC, 8.82 µM; in the experiment on TK-10 renal, greater than 25 µM. For the same compound, the TGI with RXF 393 renal is 15.4 µM; in the experiment on SN12C renal, greater than 25 µM; in the experiment on LOX IMVI melanoma it was greater than 25 µM; in the experiment with HS 578T breast, greater than 25 µM; in the experiment on A498 renal it was greater than 25 µM; with SNB-19 CNS, greater than 25 µM. For the same compound, the TGI in the experiment with HOP-62 NSCLC, in the experiment with M14 melanoma, with EKVX NSCLC and with TK-10 renal was greater than 25 µM throughout.

In the case of `O=C1C(NCCO)=C(N2CC2)C(=O)C(NCCO)=C1N1CC1`, the TGI in the experiment on RXF 393 renal is greater than 100 µM; in the experiment with SN12C renal it was 56.7 µM; in the experiment with LOX IMVI melanoma it was 41.3 µM; in the experiment on HS 578T breast, greater than 100 µM; in the experiment with A498 renal it was greater than 100 µM; with SNB-19 CNS, greater than 100 µM. Further, the TGI with HOP-62 NSCLC is 66.7 µM; in the experiment with M14 melanoma, greater than 100 µM; with EKVX NSCLC, greater than 100 µM; in the experiment on TK-10 renal, greater than 100 µM.

Regarding `C[C@]12CC[C@H]3[C@@H](CCC4=CC(=O)CC[C@@H]43)[C@@H]1CC[C@@H]2OC1(O)C(=O)c2ccccc2C1=O`, the TGI in the experiment on RXF 393 renal is greater than 100 µM; in the experiment with SN12C renal it was 34.4 µM; in the experiment on LOX IMVI melanoma it was greater than 100 µM; with HS 578T breast, greater than 100 µM; with A498 renal, greater than 100 µM; in the experiment with SNB-19 CNS, greater than 100 µM. Also, the TGI in the experiment on HOP-62 NSCLC was greater than 100 µM; with M14 melanoma, greater than 100 µM; in the experiment with EKVX NSCLC, 2.79 µM; in the experiment on TK-10 renal it was greater than 100 µM.

On to `Cc1c(C(=O)/C=C/c2ccc(O)cc2)nnn1-c1ccnc2c(C(F)(F)F)cccc12`, for which the GI50 in the experiment on RXF 393 renal is 16.6 µM; in the experiment on SN12C renal it was 18 µM; in the experiment with LOX IMVI melanoma it was 6.41 µM; in the experiment on HS 578T breast it was 60.7 µM; in the experiment on A498 renal, 51 µM; in the experiment on SNB-19 CNS it was 24.9 µM. The GI50 in the experiment with HOP-62 NSCLC was 67.7 µM; in the experiment on M14 melanoma, 49.6 µM; in the experiment with EKVX NSCLC, 39 µM; with TK-10 renal, 9.28 µM. Besides, the TGI in the experiment with RXF 393 renal is 67.3 µM; in the experiment with SN12C renal, greater than 100 µM; with LOX IMVI melanoma, greater than 100 µM; in the experiment with HS 578T breast, greater than 100 µM; in the experiment with A498 renal, greater than 100 µM; with SNB-19 CNS it was greater than 100 µM. Also, the TGI in the experiment with HOP-62 NSCLC is greater than 100 µM; in the experiment on M14 melanoma, greater than 100 µM; in the experiment with EKVX NSCLC it was greater than 100 µM; in the experiment on TK-10 renal, 73.4 µM.

In the case of `FC(F)(F)c1ccc2c(c1)N(CCCN1CCN(C3CC3)CC1)c1ccccc1S2`, the GI50 with RXF 393 renal is 11.5 µM; in the experiment on SN12C renal, 13.3 µM; with LOX IMVI melanoma it was 13.7 µM; in the experiment on HS 578T breast it was 10.3 µM; with A498 renal it was 11 µM; in the experiment on SNB-19 CNS, 17.1 µM. Further, the GI50 is 14.4 µM in the experiment with HOP-62 NSCLC, 15.1 µM in the experiment with M14 melanoma, 6.09 µM in the experiment with EKVX NSCLC and 13.8 µM in the experiment on TK-10 renal. Besides, the TGI in the experiment on RXF 393 renal is 24.1 µM; in the experiment with SN12C renal it was 28.1 µM; in the experiment on LOX IMVI melanoma it was 28.3 µM; in the experiment with HS 578T breast, 27.1 µM; in the experiment on A498 renal, 23.3 µM; in the experiment with SNB-19 CNS, 36.2 µM. Also, the TGI in the experiment on HOP-62 NSCLC is 27.8 µM; in the experiment on M14 melanoma, 30.7 µM; with EKVX NSCLC, 22.2 µM; with TK-10 renal, 27.2 µM.

With `COc1nccc(-c2c(-c3ccc(F)cc3)ncn2C2CCC(O)CC2)n1` (stereo not given), the GI50 in the experiment on RXF 393 renal is greater than 79.2 µM; in the experiment with SN12C renal it was 61.8 µM; with LOX IMVI melanoma, greater than 92.9 µM; in the experiment with HS 578T breast it was greater than 100 µM; with A498 renal it was 21.5 µM; in the experiment on SNB-19 CNS, greater than 100 µM. The GI50 in the experiment with HOP-62 NSCLC is 99 µM; in the experiment with M14 melanoma, greater than 100 µM; with EKVX NSCLC, 78.2 µM; in the experiment on TK-10 renal, 39.4 µM. The TGI in the experiment on RXF 393 renal, in the experiment with SN12C renal, in the experiment with LOX IMVI melanoma, with HS 578T breast, with A498 renal and in the experiment on SNB-19 CNS was greater than 100 µM throughout. The TGI in the experiment on HOP-62 NSCLC, in the experiment with M14 melanoma, in the experiment on EKVX NSCLC and in the experiment on TK-10 renal was greater than 100 µM each time.

Take `CC(=O)OCC(=O)[C@@]1(O)[C@H](C)C[C@H]2[C@@H]3C=C(C)C4=Cc5c(cnn5-c5ccc(F)cc5)C[C@]4(C)[C@H]3[C@@H](O)C[C@@]21C`: the GI50 with RXF 393 renal is 0.709 µM; in the experiment on SN12C renal it was 1.89 µM; in the experiment on LOX IMVI melanoma, 1.66 µM; with HS 578T breast it was 1.33 µM; with A498 renal it was 1.48 µM; in the experiment with SNB-19 CNS it was 2.03 µM. In addition, the GI50 was 1.28 µM with HOP-62 NSCLC, 1.71 µM in the experiment on M14 melanoma, 1.88 µM in the experiment with EKVX NSCLC and 1.91 µM in the experiment on TK-10 renal. Moreover, the TGI in the experiment with RXF 393 renal came to 2.35 µM; in the experiment with SN12C renal, 7.08 µM; with LOX IMVI melanoma it was 3.8 µM; in the experiment on HS 578T breast, 4.05 µM; with A498 renal, 3.15 µM; in the experiment with SNB-19 CNS, 6.27 µM. The TGI in the experiment on HOP-62 NSCLC worked out at 3.07 µM; in the experiment with M14 melanoma it was 3.5 µM; in the experiment with EKVX NSCLC it was 10.4 µM; in the experiment on TK-10 renal it was 6.03 µM.
